In patent US10166271B2, “Methods for promoting hair growth” (THE REGENTS OF THE UNIVERSITY OF CALIFORNIA, priority 2006, dated 2019):
Values joined by “and” are separate entries in the source; they are usually repeats but may differ in a detail not shown here. Equal entries are not always repeated.

Key:
Assay type in all cases: in vivo
CRF-OE mice [1] = experiment: Long-term hair growth after sc injection in alopecic female CRF-OE mice (Example 5); conditions: two female CRF-OE mice; sc 5 μg/day x 5 days; four months after the final injection
Method: Two female CRF-OE mice, which had fully developed alopecia, received a single daily subcutaneous injection of 5 μg astressin B (in 0.1 ml saline) in the back for five consecutive days. Four (4) months after the final injection, the growth of hair on the backs of both mice was scored 9 out of 10. Similarly, two out of four male CRF-OE mice received intraperitoneal injection of 5 μg astressin B for five consecutive days. Thus, the mice not only grew hair in a previously bald (or balding) region, but such hair was maintained for months without on-going treatment.

CRF-OE mice [2] = experiment: Repeat sc experiment in female CRF-OE mice (4.5 months old): skin pigment and hair growth scores; parameters: key to Skin pigmentation (Pg) score: 0 = bright pink skin, 10 = black pigmentation of entire region; key to Ventral Abdomen Hair Growth Score (VAb) / Back Hair Growth Score (BK): 0 = no change in hair, 10 = full hair growth in test area; conditions: sc 5 μg/mouse x 5 days
Method: Hair growth in CRF-OE mice was assessed using the hair growth scale developed by Vegesna et al. […], 2002) modified to account for phenotypic differences between CRF-OE mice. Scores were made visually as well as using photographs of each mouse at a weekly interval. The degree of alopecia varied between individual CRF-OE mice; thus, the percent difference between the amount of hair present in the test area (described below) before and 4 weeks after treatment was converted to a score of 0-10. A zero score corresponded to a no change in the amount of hair in the test area and a score of 10 corresponded to full hair growth in the entire test area. The scale for monitoring hair growth in CRF-OE mice is more particularly described in Table 2.
Pigmentation of the skin (also referred to as skin color) in the test region was also measured because, in C57BL/6 mice, the skin darkens at the onset of hair growth. A pigmentation score from 0-10 was given to each mouse with a score of 0 corresponding to bright pink skin color/pigment in the entire test region, a score of 1-5 corresponding to increasing intensity of a pale greyish color/pigment of skin in the test region, a score of 6-9 corresponding to increasing but non-confluent darker color/pigment of skin in the test region, and a score of 10 corresponding to black pigmentation of the entire test region. Pigmentation was measured one week after the fifth and final injection because changes (if any) in pigmentation are substantially complete by that time.
Experiments were repeated in female CRF-OE mice (4.5 months old) to confirm the results. Mice were injected with astressin B (5 μg/mouse, 10 mice) or saline (5 mice) for 5 days. Skin pigment and hair growth scores were given as described before. Five astressin B-treated and five saline injected mice were sacrificed for skin tissue collection at seven days post last injection. Additional mice (5) injected with astressin B were sacrificed on day 14. Five littermate wild type (WT) mice were used as normal control. Adrenal gland and abdominal fat weights were also checked at sacrifice of each mouse.
CRF-OE mice (approximately 4 months old) with fully developed alopecia on their backs were injected intraperitoneally (ip) with equal volumes (0.1 ml) of either saline or astressin B (5 μg/mouse/day) for 5 consecutive days. Skin pigment score and hair growth (on the back) score were determined as described in Example 1. In addition, because adult CRF-OE mice also lose ventral abdomen hair, a ventral abdomen (Vab) hair growth score was determined. The area considered for scoring ventral abdomen hair growth was delineated, in the front (anteriorly), by a horizontal line across the tip of the xifoid process (distal sternum), in the rear (posteriorly), by a horizontal line joining the back of the thighs along the anus, and, laterally, by a straight line along the lateral side of the ventral abdomen on left and right sides.

young CRF-OE mice = experiment: Cyclic CRF antagonists, prevention of hair loss in young CRF-OE mice (Example 11); conditions: at least four weeks after the final administration
From the text: Although mice are particularly described, one skilled in the art will appreciate that other laboratory animals and human subjects can be used, and doses adjusted accordingly (for example based on the weight of the subject, or the area to which the peptide is to be applied). Similarly, although particular modes of administration are described, one will appreciate that variations can be made (such as those disclosed herein and those known in the art).
Any method of administration can be used, including injection, transdermal/topical delivery, or combinations thereof.
In one example, therapeutic peptides are administered via injection. For example, mice can be injected subcutaneously or intraperitoneally with at least 0.05 μg, at least 0.5 μg, at least 5 μg, at least 50 μg, or at least 500 μg of one or more therapeutic peptides (for example 0.5-50 μg peptide, 0.5-10 μg peptide, or 5 μg peptide). The peptide can be administered in 0.1 ml sterile saline (or 5% mannitol) once per day for at least 5 consecutive days, such as at least 10 days, at least 30 days, or at least 60 days. […] As a negative control, CRF-OE mice receive saline alone (such as 10-100 μl) or 5 μg astressin 2B in 0.1 ml saline.
In another example, therapeutic peptides are administered topically or transdermally. […]

[3] = Before (Week 0), individual mice and Ave., listed as AB
[4] = Before (Week 0), individual mice and Ave., listed as AB, mean
[5] = Week 1, individual mice and Ave., listed as AB
[6] = Week 1, individual mice and Ave., listed as AB, mean

With “(cyclo 30-33)[DPhe12, Nle21,38, Cml27,40, Glu30, Lys33]Ac-h/rCRF9-41 [Astressin B]” the “Growth of hair on the back, score out of 10” value (CRF-OE mice [1]) was 9, the “Skin pigmentation (Pg) score” value (CRF-OE mice [2]; Before (Week 0), individual mice and Ave.) was 0 and the “Back Hair Growth Score (BK)” value (CRF-OE mice [2]; [3]) was 0.5 (4×) and 1 (2×) and 0 (4×). For the same substance, the “Ventral Abdomen Hair Growth Score (VAb)” value (CRF-OE mice [2]; [3]) was 0.5 (4×) and 0.25 (6×), the “Back Hair Growth Score (BK)” value (CRF-OE mice [2]; [4]) was 0.7 and 0.1 and the “Ventral Abdomen Hair Growth Score (VAb)” value (CRF-OE mice [2]; [4]) was 0.35. For the same substance, the “Skin pigmentation (Pg) score” value (CRF-OE mice [2]; Before (Week 0), individual mice and Ave., mean) was 0, the “Back Hair Growth Score (BK)” value (CRF-OE mice [2]; [5]) was 10 (4×) and 9.5 (3×) and 7 and 9 and 8.5 and the “Skin pigmentation (Pg) score” value (CRF-OE mice [2]; [5]) was 10 (4×) and 9.5 (3×) and 7 and 9 and 8.5. The “Ventral Abdomen Hair Growth Score (VAb)” value (CRF-OE mice [2]; [5]) was 0.5 (2×) and 0.25 (7×) and 0.75, the “Back Hair Growth Score (BK)” value (CRF-OE mice [2]; [6]) was 9.5 and 9.1 and the “Skin pigmentation (Pg) score” value (CRF-OE mice [2]; [6]) was 9.5 and 9.1. The “Ventral Abdomen Hair Growth Score (VAb)” value (CRF-OE mice [2]; [6]) was 0.35, the “Ventral Abdomen Hair Growth Score (VAb)” value (CRF-OE mice [2]; Week 2, 14 days follow-up group, individual mice and Ave.) was 0.5 and the “Back Hair Growth Score (BK)” value (CRF-OE mice [2]; Week 2, 14 days follow-up group, individual mice and Ave., listed as AB) was 5 and 9.5 and 8 (2×) and 10. The “Back Hair Growth Score (BK)” value (CRF-OE mice [2]; Week 2, 14 days follow-up group, individual mice and Ave., listed as AB, mean) was 8.1 and the “Ventral Abdomen Hair Growth Score (VAb)” value (CRF-OE mice [2]; Week 2, 14 days follow-up group, individual mice and Ave., mean) was 0.5.
With “cyclo(31-34)[DPhe11, His12, CαMeLeu13,39, Nle17, Glu31, Lys34]Ac-Sau(8-40) [Astressin 2B, reference compound]” the “Hair in the test area” value (young CRF-OE mice) was “ultimately develop alopecia in the test area”.
